Columns and labels:
Melanocortin receptor 5 = Melanocortin receptor 5 (Homo sapiens, UniProt P33032); assay: Displacement of [125I]-NAD-alpha-MSH from human recombinant MC3 receptor human MC5 expressed in BHK570 cells after 1 hr in presence of ovalbumin; assay type: cell-based
Rattus norvegicus [1] = assay: Antiobesity activity in Sprague-Dawley rat assessed as reduction of food intake at 3 mg/kg, sc qd measured after 7 to 24 hrs relative to control; assay type: functional; design: scale not given: the % may be the effect or the level left; details: route subcutaneous
Melanocortin receptor 3 = Melanocortin receptor 3 (Homo sapiens, UniProt P41968); assay: Displacement of [125I]-NAD-alpha-MSH from human recombinant MC3 receptor expressed in BHK570 cells after 1 hr in presence of ovalbumin; assay type: cell-based
Rattus norvegicus [2] = assay: Antiobesity activity in Sprague-Dawley rat assessed as reduction of food intake at 3 mg/kg, sc qd measured up to 7 hrs relative to control; assay type: functional; design: scale not given: the % may be the effect or the level left; details: route subcutaneous
Melanocortin receptor 4 [3] = target: T1, Melanocortin receptor 4 (Homo sapiens, UniProt P32245); assay: Agonist activity at human recombinant MC4 receptor expressed in BHK570 cells assessed as induction of […] accumulation in presence of 0.1% human serum albumin; assay type: functional, cell-based
[4] = target: Melanocyte-stimulating hormone receptor (Homo sapiens, UniProt Q01726); assay: Displacement of [125I]-NAD-alpha-MSH from human recombinant MC1 receptor expressed in BHK570 cells after 90 mins in presence of ovalbumin; assay type: cell-based
Rattus norvegicus [5] = assay: Antiobesity activity in Sprague-Dawley rat assessed as reduction of food intake at 3 mg/kg, sc qd measured after 24 to 48 hrs relative to control; assay type: functional; details: route subcutaneous
Melanocortin receptor 4 [6] = target: T1, Melanocortin receptor 4; assay: Displacement of [125I]-NAD-alpha-MSH from MC4 receptor after 2 hrs by gamma counting in presence of ovalbumin

Chain of Melanocortin receptor 5 (P33032 whole entry): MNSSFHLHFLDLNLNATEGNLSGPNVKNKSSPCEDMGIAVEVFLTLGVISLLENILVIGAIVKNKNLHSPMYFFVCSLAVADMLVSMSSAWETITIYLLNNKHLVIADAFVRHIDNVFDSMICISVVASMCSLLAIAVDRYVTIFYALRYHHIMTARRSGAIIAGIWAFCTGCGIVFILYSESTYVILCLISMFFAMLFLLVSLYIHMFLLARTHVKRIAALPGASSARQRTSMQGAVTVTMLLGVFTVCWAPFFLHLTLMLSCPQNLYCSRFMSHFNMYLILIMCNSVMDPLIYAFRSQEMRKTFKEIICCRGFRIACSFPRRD
Chain of Melanocyte-stimulating hormone receptor (Q01726 whole entry): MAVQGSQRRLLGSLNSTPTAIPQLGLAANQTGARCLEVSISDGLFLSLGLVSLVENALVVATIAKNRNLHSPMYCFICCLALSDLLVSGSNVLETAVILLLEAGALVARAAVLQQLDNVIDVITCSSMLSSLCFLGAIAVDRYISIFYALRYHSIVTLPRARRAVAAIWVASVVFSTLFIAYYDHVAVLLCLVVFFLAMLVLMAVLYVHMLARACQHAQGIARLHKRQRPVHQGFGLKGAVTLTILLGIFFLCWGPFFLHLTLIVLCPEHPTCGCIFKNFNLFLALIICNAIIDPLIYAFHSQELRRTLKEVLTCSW
Chain of Melanocortin receptor 3 (P41968 whole entry): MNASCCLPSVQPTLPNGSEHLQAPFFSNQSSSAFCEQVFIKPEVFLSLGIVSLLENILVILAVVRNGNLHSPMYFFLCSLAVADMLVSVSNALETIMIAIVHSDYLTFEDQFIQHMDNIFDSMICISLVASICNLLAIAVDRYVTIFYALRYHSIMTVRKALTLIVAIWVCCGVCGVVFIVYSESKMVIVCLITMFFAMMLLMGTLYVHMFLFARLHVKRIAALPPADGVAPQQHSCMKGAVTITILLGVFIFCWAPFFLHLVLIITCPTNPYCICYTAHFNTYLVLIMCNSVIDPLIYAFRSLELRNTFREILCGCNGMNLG
T1 sequence (P32245 whole entry): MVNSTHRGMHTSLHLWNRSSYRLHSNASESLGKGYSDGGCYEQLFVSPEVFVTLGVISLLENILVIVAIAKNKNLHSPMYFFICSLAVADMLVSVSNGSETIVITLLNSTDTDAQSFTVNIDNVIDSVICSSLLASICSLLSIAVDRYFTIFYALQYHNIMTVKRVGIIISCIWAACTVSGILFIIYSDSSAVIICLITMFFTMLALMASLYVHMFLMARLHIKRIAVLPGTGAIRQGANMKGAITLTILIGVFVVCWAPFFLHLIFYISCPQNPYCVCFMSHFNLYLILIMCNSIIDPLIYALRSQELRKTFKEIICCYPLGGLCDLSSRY

Row | SMILES | Ki (Melanocortin receptor 5) [nM] | Ki (Melanocortin receptor 3) [nM] | Ki [4] [nM] | Ki (Melanocortin receptor 4 [6]) [nM] | Activity (Rattus norvegicus [1]) [%] | Activity (Rattus norvegicus [2]) [%] | EC50 (Melanocortin receptor 4 [3]) [nM] | Food intake relative to control (Rattus norvegicus [5]) [%]
1 | CCCC[C@H](NC(=O)[C@H](CNC(C)C)NC(=O)[C@H](Cc1cnc[nH]1)NC(=O)[C@H](CCC(N)=O)NC(=O)[C@H](CO)NC(=O)CNC(=O)COCCOCCNC(=O)CCCCCCCCCCCCCCCc1nnn[nH]1)C(=O)N[C@H]1CCC(=O)NCCCC[C@@H](C(N)=O)NC(=O)[C@H](Cc2c[nH]c3ccccc23)NC(=O)[C@H](CCCNC(=N)N)NC(=O)[C@@H](Cc2ccccc2)NC(=O)[C@@H]2C[C@@H](O)CN2C1=O | 3.4 | 13 | 270 | 0.26 | 40 | 50 | 15 | 72
2 | CCCC[C@H](NC(=O)[C@H](CCC(=O)O)NC(=O)[C@H](Cc1c[nH]cn1)NC(=O)[C@H](CCC(=O)O)NC(=O)[C@H](CCC(=O)O)NC(=O)CNC(=O)COCCOCCNC(=O)CCCCCCCCCCCCCCCc1nnn[nH]1)C(=O)N[C@H]1CCC(=O)NCCCC[C@@H](C(N)=O)NC(=O)[C@H](Cc2c[nH]c3ccccc23)NC(=O)[C@H](CCCNC(=N)N)NC(=O)[C@@H](Cc2ccccc2)NC(=O)[C@@H]2C[C@@H](O)CN2C1=O | 110 | 450 | 8100 | 7.8 | 79 | 75 |  | 88
3 | CCCC[C@H](NC(=O)[C@@H](N)CNC(=O)[C@H](Cc1cnc[nH]1)NC(=O)[C@H](CCC(N)=O)NC(=O)[C@H](CO)NC(=O)CNC(=O)COCCOCCNC(=O)CCCCCCCCCCCCCCCc1nnn[nH]1)C(=O)N[C@H]1CCC(=O)NCCCC[C@@H](C(N)=O)NC(=O)[C@H](Cc2c[nH]c3ccccc23)NC(=O)[C@H](CCCN=C(N)N)NC(=O)[C@@H](Cc2ccccc2)NC(=O)[C@@H]2C[C@@H](O)CN2C1=O | 40 | 121 | 700 | 0.17 |  |  | 85 | 
4 | CCCC[C@H](NC(=O)[C@H](CN)NC(=O)[C@H](Cc1cnc[nH]1)NC(=O)[C@H](CCC(N)=O)NC(=O)[C@H](CO)NC(=O)CNC(=O)COCCOCCNC(=O)CCCCCCCCCCCCCCCc1nnn[nH]1)C(=O)N[C@H]1CCC(=O)NCCCC[C@@H](C(N)=O)NC(=O)[C@H](Cc2c[nH]c3ccccc23)NC(=O)[C@H](CCCN=C(N)N)NC(=O)[C@@H](Cc2ccccc2)NC(=O)[C@@H]2C[C@@H](O)CN2C1=O | 10 | 42 | 400 | 0.17 |  |  | 62 | 

Further lines, with some results ahead:

Row | Ki (Melanocortin receptor 5) [nM] | Ki (Melanocortin receptor 3) [nM] | Ki [4] [nM] | Ki (Melanocortin receptor 4 [6]) [nM] | SMILES | Activity (Rattus norvegicus [1]) [%] | Activity (Rattus norvegicus [2]) [%] | EC50 (Melanocortin receptor 4 [3]) [nM] | Food intake relative to control (Rattus norvegicus [5]) [%]
5 | 710 | 1600 | > 10000 | 250 | CCCC[C@H](NC(=O)[C@H](CCC(=O)O)NC(=O)[C@H](CCC(=O)O)NC(=O)[C@H](CCC(=O)O)NC(=O)[C@H](CCC(=O)O)NC(=O)CNC(=O)COCCOCCNC(=O)CCCCCCCCCCCCCCCc1nnn[nH]1)C(=O)N[C@H]1CCC(=O)NCCCC[C@@H](C(N)=O)NC(=O)[C@H](Cc2c[nH]c3ccccc23)NC(=O)[C@H](CCCNC(=N)N)NC(=O)[C@@H](Cc2ccccc2)NC(=O)[C@@H]2C[C@@H](O)CN2C1=O |  |  |  | 
6 | 4.3 | 22 | 73 | 1 | CCCC[C@H](NC(=O)[C@H](CO)NC(=O)[C@H](CCCCN=C(N)N)NC(=O)[C@H](CCC(N)=O)NC(=O)[C@H](CO)NC(=O)CNC(C)=O)C(=O)N[C@H]1CCC(=O)NCCCC[C@@H](C(N)=O)NC(=O)[C@H](Cc2c[nH]c3ccccc23)NC(=O)[C@H](CCCN=C(N)N)NC(=O)[C@@H](Cc2ccccc2)NC(=O)[C@@H]2C[C@@H](O)CN2C1=O |  |  | 0.47 | 
7 | 270 | 1100 | > 10000 | 35 | CCCC[C@H](NC(=O)[C@H](CCC(=O)O)NC(=O)[C@H](CCCN=C(N)N)NC(=O)[C@H](CCC(=O)O)NC(=O)[C@H](CCC(=O)O)NC(=O)CNC(=O)COCCOCCNC(=O)CCCCCCCCCCCCCCCc1nnn[nH]1)C(=O)N[C@H]1CCC(=O)NCCCC[C@@H](C(N)=O)NC(=O)[C@H](Cc2c[nH]c3ccccc23)NC(=O)[C@H](CCCN=C(N)N)NC(=O)[C@@H](Cc2ccccc2)NC(=O)[C@@H]2C[C@@H](O)CN2C1=O |  |  | 270 | 
